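A five-concentration, 48-hour dose response in 96-well plates underlies each endpoint, interpolated linearly between surrounding concentrations. At the GI50, growth is halved.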 Calls of active or inactive are those of the source. No stated cut-off is given here; in the data, active = GI50 up to about 1.1 µM and inactive = higher.
Columns and labels:
Assay in all cases: NCI anticancer screen, dose series, 48 h
[1] = test system: A549
[2] = test system: ACHN
[3] = test system: CCRF-CEM
[4] = test system: COLO 205
[5] = test system: HCC 2998
[6] = test system: KM12
[7] = test system: LXFL 529
[8] = test system: NCI-H23
[9] = test system: OVCAR-3
[10] = test system: SK-MEL-28
[11] = test system: SK-MEL-2
[12] = test system: SK-OV-3
[13] = test system: SN12C
[14] = test system: TK-10
[15] = test system: UACC-257
[16] = test system: UACC-62
[17] = test system: NCI-H460

Measured: GI50

COc1cc2ccc(CC(=O)O)cc2cc1OC
inactive: [1] > 100 µM | [2] > 100 µM | [3] > 100 µM | [4] > 100 µM | [5] > 100 µM | [6] > 100 µM | [7] > 100 µM | [8] > 100 µM | [9] > 100 µM | [10] > 100 µM | [11] > 100 µM | [12] > 100 µM | [13] > 100 µM | [14] > 100 µM | [15] > 100 µM | [16] > 100 µM

CN(C)c1snc2c1c(=O)n(C)c(=O)n2C
inactive: [1] > 100 µM | [2] > 100 µM | [3] > 100 µM | [4] > 100 µM | [5] > 100 µM | [7] > 100 µM | [8] > 100 µM | [17] > 100 µM | [9] > 100 µM | [10] > 100 µM | [11] > 100 µM | [12] > 100 µM | [13] > 100 µM | [14] > 100 µM | [15] > 100 µM | [16] > 100 µM

N=CCCN(CCC=N)c1ccc(/C=C2\CN(NC(=O)c3ccc(Cl)cc3)C(c3ccccc3)=N2)cc1
inactive: [1] > 100 µM | [2] > 100 µM | [3] > 100 µM | [4] > 100 µM | [5] > 100 µM | [6] > 100 µM | [7] > 100 µM | [8] > 100 µM | [17] > 100 µM | [9] > 100 µM | [10] > 100 µM | [11] > 100 µM | [12] > 100 µM | [13] > 100 µM | [14] > 100 µM | [15] > 100 µM | [16] > 100 µM

CCCCOC(=O)NC(=O)c1cn(CCSCCOC(=O)NCCCCCCNC(=O)OCCSCCn2cc(C(=O)NC(=O)OCCCC)c(=O)[nH]c2=O)c(=O)[nH]c1=O
inactive: [1] > 100 µM | [2] > 100 µM | [4] > 100 µM | [5] > 100 µM | [6] > 100 µM | [7] 27 µM | [8] 27.4 µM | [17] > 100 µM | [9] > 100 µM | [10] > 100 µM | [11] 56.9 µM | [12] 30.1 µM | [13] > 100 µM | [14] 30.1 µM | [15] > 100 µM | [16] 41.5 µM

O=[N+]([O-])c1cccc(C2=NN(c3ccccc3)C3c4cc(Br)ccc4OCC23)c1 (stereo unspecified)
inactive: [1] > 100 µM | [2] > 100 µM | [3] > 100 µM | [4] > 100 µM | [5] > 100 µM | [6] 81.8 µM | [7] > 100 µM | [8] > 100 µM | [17] > 100 µM | [9] > 100 µM | [10] > 100 µM | [11] > 100 µM | [12] > 100 µM | [14] > 100 µM | [15] > 100 µM

COC(=O)C1=C(O)c2cc(OC)c(OC)c(OC)c2C(c2ccc3c(c2)OCO3)[C@@H]1C(=O)OC (stereo partly specified)
inactive: [1] 4.68 µM | [2] 4.74 µM | [3] 4.42 µM | [4] 2.24 µM | [5] 4.97 µM | [6] 2.94 µM | [7] 3.08 µM | [8] 7.03 µM | [17] 5.47 µM | [9] 1.99 µM | [10] 7.31 µM | [11] 7.48 µM | [12] 3.44 µM | [13] 3.68 µM | [14] 7.18 µM | [15] 5.81 µM | [16] 1.53 µM

O=C(Nc1nc2ncn(CCNCCn3cnc4nc(NC(=O)c5ccccc5)[nH]c(=O)c43)c2c(=O)[nH]1)c1ccccc1
inactive: [1] > 100 µM | [2] > 100 µM | [3] > 100 µM | [4] > 100 µM | [5] > 100 µM | [6] > 100 µM | [7] > 100 µM | [8] > 100 µM | [17] > 100 µM | [9] > 100 µM | [10] > 100 µM | [11] > 100 µM | [12] > 100 µM | [13] > 100 µM | [14] > 100 µM | [15] > 100 µM | [16] > 100 µM

NC(=O)c1cc(C2OC(CO)C(O)C2O)nn1-c1ccc([N+](=O)[O-])cc1 (stereo unspecified)
inactive: [1] > 100 µM | [2] > 100 µM | [3] > 100 µM | [4] > 100 µM | [5] > 100 µM | [6] > 100 µM | [7] > 100 µM | [8] > 100 µM | [17] > 100 µM | [9] > 100 µM | [10] > 100 µM | [11] > 100 µM | [12] > 100 µM | [13] > 100 µM | [14] > 100 µM | [15] > 100 µM | [16] > 100 µM

Reference: ChEMBL document CHEMBL1201862, “PubChem BioAssay data set” (2004)
